One test concerns ATF4. Put plainly: ATF4 expression inhibition assay (ATF4 5'UTR luciferase reporter, thapsigargin-stressed). Format: cell-based. Conditions: Homo sapiens, HEK-293T, read-out: ATF4 inhibition. The method, then:
The ATF4 reporter was prepared by fusing the human full length 5′UTR of ATF4 (NCBI Accession No. BC022088.2) upstream of the firefly luciferase coding sequence lacking the initiator methionine. The fused sequence was cloned into pLenti-EF1a-C-Myc-DDK-IRES-Puro cloning vector (Origen #PS100085) using standard methods.
HEK293T cells carrying the ATF4 luciferase reporter were plated on 96-well plates (Nunc) at 10,000 cells per well. Cells were treated two days after seeding with 100 nM thapsigargin (Tg) (Sigma-Aldrich #T9033) in the presence of different concentrations of selected compounds ranging from 0.1 nM to 10 μM. Cells without treatment or cells treated with Tg alone were used as controls. Assay plates containing cells were incubated for 3 hours at 37° C.
Luciferase reactions were performed using Luciferase Assay System (Promega #E1501) as specified by the manufacturer. Luminescence was read with an integration time of 1 s and a gain of 110 using a Cytation-5 multi-mode microplate reader (BioTek).
A general note: In a reporter assay the amount or activity of a reporter protein is the signal.

Test [1] concerns Chinese hamster ovary (CHO) cells. Briefly: Protein synthesis assay (puromycin incorporation, Western blot). Format: cell-based. Conditions: Cricetulus griseus, read-out: % Protein synthesis relative to untreated (1 μM test compound). As for the experimental part: Chinese hamster ovary (CHO) cells were maintained at 37° C. and 5% CO2 in Dulbecco's Modified Eagle's Media (DMEM) supplemented with 10% fetal bovine serum, 2 mM L-glutamine, 100 U/ml penicillin, and 100 μg/ml streptomycin. After reaching 80% of confluence, cells were detached and seeded on 6 well plates in complete media, allowed to recover overnight and treated for 2 hours with 1 μM of the test compound (to assess protein synthesis levels in unstressed condition), or for 2 hours with 300 nM Tg in the presence of 1 μM of the test compound (to assess the recovery of protein synthesis in a stressed condition). Cells with Tg alone were used as controls.
After the 2 hours treatments, media were replaced by adding 10 μg/ml puromycin (Sigma Aldrich #P8833) in complete media for 30 min. Media were removed and cells were lysed with SDS-PAGE lysis buffer. Lysates were transferred to 1.5 ml tubes and sonicated for 3 min and total protein amount were quantified using BCA Protein Assay Kit (Pierce). Equal amount of protein (30 μg) was loaded on SDS-PAGE gels.
A HRP-conjugated secondary antibody (Rockland) was employed to detect immune-reactive bands using enhanced chemiluminescence (ECL Western Blotting Substrate, Pierce). Quantification of protein bands was done by densitometry using ImageJ software.
The percentage levels were normalized to the media alone condition, which correspond to 100% protein synthesis. […]
In general terms: In western blotting, separated proteins are transferred to a membrane and probed.

The mark [2] stands for this setting: HEK293T cells carrying ATF4 luciferase reporter, 100 nM thapsigargin, 3 hours.
Where [3] appears, read: unstressed CHO cells (without Tg), 1 μM test compound, 2 hours, media alone = 100%.

The results in this text go back to US20230083885A1, “MODULATORS OF INTEGRATED STRESS RESPONSE PATHWAY” (Praxis Biotech LLC, priority 2021, published 2023).

Where two headings read alike, the source gives them in different places.

Consider `O=C(COc1ccc(Cl)c(F)c1)N[C@H]1CC[C@H](c2nnc(-c3ccc(Cl)c(F)c3)o2)CC1` [Compound 17, trans-2-(4-chloro-3-fluorophenoxy)-N-(4-(5-(4-chloro-3-fluorophenyl)-1,3,4-oxadiazol-2-yl)cyclohexyl)acetamide], for which, in the test with ATF4 (setting [2]), the IC50 was < 0.01 µM. Moreover, in test [1] (setting [3]), the activity at 1 µM was found to be 105%.

In the case of `O=C(N[C@H]1CC[C@H](c2nnc(-c3ccc(Cl)cc3)o2)CC1)c1cnc(C(F)F)cn1` [Compound 15, trans-N-(4-(5-(4-chlorophenyl)-1,3,4-oxadiazol-2-yl)cyclohexyl)-5-(difluoromethyl)pyrazine-2-carboxamide], in the test on ATF4 (setting [2]), the IC50 is 0.01 to 0.1 µM. Further, the activity at 1 µM in test [1] (setting [3]) was 103%.

On to `O=C(Nc1ccc2cc(Cl)ccc2n1)[C@H]1CC[C@H](c2nnc(C3CCC(F)(F)CC3)o2)CC1` [Compound 28, trans-N-(6-chloroquinolin-2-yl)-4-(5-(4,4-difluorocyclohexyl)-1,3,4-oxadiazol-2-yl)cyclohexanecarboxamide], for which the IC50 with ATF4 (setting [2]) fell in the range of 0.1 to 1 µM. Moreover, the activity at 1 µM in test [1] (setting [3]) turned out to be 23.8%.

As for `O=C(COc1ccc(Cl)c(F)c1)N[C@H]1CC[C@H](c2nnc([C@H]3CNc4cc(Cl)ccc4O3)o2)CC1` (single isomer, unassigned) [Compound 43], the IC50 with ATF4 (setting [2]) was < 0.01 µM. The activity at 1 µM in test [1] (setting [3]) amounted to 86.3%.

On to `O=C(N[C@H]1CC[C@H](c2nnc(COc3ccc(Cl)cc3)o2)CC1)C1CNc2cc(Cl)ccc2O1` (stereo partly drawn) [Compound 11, trans-6-chloro-N-(4-(5-((4-chlorophenoxy)methyl)-1,3,4-oxadiazol-2-yl)cyclohexyl)-3,4-dihydro-2H-benzo[b][1,4]oxazine-2-carboxamide], for which the IC50 with ATF4 (setting [2]) lay in the range of 0.01 to 0.1 µM. For the same compound, the activity at 1 µM in test [1] (setting [3]) worked out at 140%.

Take `O=C(COc1ccc(Cl)c(F)c1)N[C@H]1CC[C@H](c2nnc([C@H]3C[C@@H](C(F)(F)F)C3)o2)CC1` [Compound 243, trans-2-(4-chloro-3-fluorophenoxy)-N-(4-(5-(cis-3-(trifluoromethyl)cyclobutyl)-1,3,4-oxadiazol-2-yl)cyclohexyl)acetamide]: the IC50 in the test on ATF4 (setting [2]) is 0.01 to 0.1 µM. Also, the activity at 1 µM in test [1] (setting [3]) was -39.1%.

Regarding `O=C(N[C@H]1CC[C@H](c2nnc(COc3ccc(Cl)cc3)o2)CC1)c1cnc(C(F)F)cn1` [Compound 16, trans-N-(4-(5-((4-chlorophenoxy)methyl)-1,3,4-oxadiazol-2-yl)cyclohexyl)-5-(difluoromethyl)pyrazine-2-carboxamide], the IC50 in the test on ATF4 (setting [2]) was > 1 µM. The activity at 1 µM in test [1] (setting [3]) came out at 115%.

For the compound `O=C(N[C@H]1CC[C@H](c2nnc(Cc3ccc(Cl)cc3)o2)CC1)c1cc2cc(Cl)ccc2o1` [Compound 247, trans-5-chloro-N-(4-(5-(4-chlorobenzyl)-1,3,4-oxadiazol-2-yl)cyclohexyl)benzofuran-2-carboxamide], the IC50 in the test with ATF4 (setting [2]) was < 0.01 µM. In test [1] (setting [3]), the activity at 1 µM came to 278%.

Turning to `O=C(Nc1ccc2cc(Cl)ccc2n1)[C@H]1CC[C@H](c2nnc(C3CCC(C(F)(F)F)CC3)o2)CC1` (stereo partly drawn) [Compound 29, trans-N-(6-chloroquinolin-2-yl)-4-(5-(4-(trifluoromethyl)cyclohexyl)-1,3,4-oxadiazol-2-yl)cyclohexanecarboxamide], the IC50 with ATF4 (setting [2]) was > 1 µM. Besides, the activity at 1 µM in test [1] (setting [3]) is 11.5%.

Regarding `O=C(Nc1ccc2cc(Cl)ccc2n1)[C@H]1CC[C@H](c2nnc([C@H]3CC[C@@H](C(F)(F)F)CC3)o2)CC1` [Compound 31, trans-N-(6-chloroquinolin-2-yl)-4-(5-(cis-4-(trifluoromethyl)cyclohexyl)-1,3,4-oxadiazol-2-yl)cyclohexanecarboxamide], the IC50 with ATF4 (setting [2]) was > 1 µM. Further, the activity at 1 µM in test [1] (setting [3]) worked out at 4.9%.

On to `O=C(N[C@H]1CC[C@H](c2nnc(-c3ccc(Cl)cc3)o2)CC1)c1cc2cc(Cl)ccc2o1` [Compound 6, trans-5-chloro-N-(4-(5-(4-chlorophenyl)-1,3,4-oxadiazol-2-yl)cyclohexyl)benzofuran-2-carboxamide], for which the IC50 in the test on ATF4 (setting [2]) is < 0.01 µM. In addition, in test [1] (setting [3]), the activity at 1 µM worked out at 111%.

Turning to `O=C(Nc1ccc2cc(Cl)ccc2n1)[C@H]1CC[C@H](c2cnn(-c3ccc(Cl)cc3)c2)CC1` [Compound 250, trans-4-(1-(4-chlorophenyl)-1H-pyrazol-4-yl)-N-(6-chloroquinolin-2-yl)cyclohexanecarboxamide], the IC50 in the test on ATF4 (setting [2]) was 0.01 to 0.1 µM. In addition, the activity at 1 µM in test [1] (setting [3]) stood at 25%.

`O=C(Nc1ccc2cc(Cl)ccc2n1)[C@H]1CC[C@H](c2nc(-c3ccc(Cl)cc3)co2)CC1` [Compound 32, trans-4-(4-(4-chlorophenyl)oxazol-2-yl)-N-(6-chloroquinolin-2-yl)cyclohexanecarboxamide]: the IC50 in the test with ATF4 (3 h) was > 1 µM. Further, the activity at 1 µM in test [1] (CHO, 2 h) came out at 136%.

Consider `O=C(Nc1ccc2cc(Cl)ccc2n1)[C@H]1CC[C@H](c2nc(-c3ccc(Cl)cc3)cs2)CC1` [Compound 33, trans-4-(4-(4-chlorophenyl)thiazol-2-yl)-N-(6-chloroquinolin-2-yl)cyclohexanecarboxamide], for which, in the test with ATF4 (3 h), the IC50 is > 1 µM. Besides, the activity at 1 µM in test [1] (CHO, 2 h) stood at 11.4%.

For the compound `O=C(NC[C@H]1CC[C@H](c2nnc(-c3ccc(Cl)cc3)o2)CC1)c1ccc2cc(Cl)ccc2n1` [Compound 1, trans-6-chloro-N-((4-(5-(4-chlorophenyl)-1,3,4-oxadiazol-2-yl)cyclohexyl)methyl)quinoline-2-carboxamide], the IC50 in the test with ATF4 (3 h) is > 1 µM. For the same compound, in test [1] (CHO, 2 h), the activity at 1 µM came to 158%.

In the case of `O=C(Nc1ccc2cc(Cl)ccc2n1)[C@H]1CC[C@H](c2nnc(-c3ccc4cc(Cl)ccc4n3)o2)CC1` [Compound 46, trans-N-(6-chloroquinolin-2-yl)-4-(5-(6-chloroquinolin-2-yl)-1,3,4-oxadiazol-2-yl)cyclohexanecarboxamide], in the test with ATF4 (setting [2]), the IC50 lay in the range of 0.01 to 0.1 µM. Besides, in test [1] (setting [3]), the activity at 1 µM stood at 11.8%.

On to `O=C(N[C@H]1CC[C@H](c2nnc(COc3ccc(Cl)cc3)o2)CC1)c1cc2cc(Cl)ccc2o1` [Compound 10, trans-5-chloro-N-(4-(5-((4-chlorophenoxy)methyl)-1,3,4-oxadiazol-2-yl)cyclohexyl)benzofuran-2-carboxamide], for which the IC50 in the test on ATF4 (setting [2]) was < 0.01 µM. Also, in test [1] (setting [3]), the activity at 1 µM amounted to 165%.

`O=C(COc1ccc(Cl)c(F)c1)N[C@H]1CC[C@H](c2nnc(COc3ccc(Cl)cc3)o2)CC1` [Compound 12, trans-2-(4-chloro-3-fluorophenoxy)-N-(4-(5-((4-chlorophenoxy)methyl)-1,3,4-oxadiazol-2-yl)cyclohexyl)acetamide]: the IC50 with ATF4 (setting [2]) was < 0.01 µM. Moreover, the activity at 1 µM in test [1] (setting [3]) is 144%.

Consider `O=C(NCc1ccc2cc(Cl)ccc2n1)[C@H]1CC[C@H](c2nnc(-c3ccc(Cl)cc3)o2)CC1` [Compound 47, trans-4-(5-(4-chlorophenyl)-1,3,4-oxadiazol-2-yl)-N-((6-chloroquinolin-2-yl)methyl)cyclohexanecarboxamide], for which the IC50 in the test on ATF4 (setting [2]) was > 1 µM. In addition, the activity at 1 µM in test [1] (setting [3]) was found to be 2%.

In the case of `O=C(COc1ccc(Cl)c(F)c1)NN1CCC(c2nnc(COc3ccc(Cl)cc3)o2)CC1` [Compound 240, 2-(4-chloro-3-fluorophenoxy)-N-(4-(5-((4-chlorophenoxy)methyl)-1,3,4-oxadiazol-2-yl)piperidin-1-yl)acetamide], the IC50 with ATF4 (setting [2]) was < 0.01 µM. For the same compound, the activity at 1 µM in test [1] (setting [3]) was determined as 42.3%.

As for `O=C(N[C@H]1CC[C@H](c2nnc(-c3ccc(Cl)cc3)o2)CC1)c1ccc2cc(Cl)ccc2n1` [Compound 5, trans-6-chloro-N-(4-(5-(4-chlorophenyl)-1,3,4-oxadiazol-2-yl)cyclohexyl)quinoline-2-carboxamide], the IC50 in the test on ATF4 (setting [2]) is < 0.01 µM. Besides, in test [1] (setting [3]), the activity at 1 µM stood at 139%.

For the compound `O=C(COc1ccc(Cl)cc1)N[C@H]1CC[C@H](c2nnc(-c3ccc(Cl)cc3)o2)CC1` [Compound 8, trans-2-(4-chlorophenoxy)-N-(4-(5-(4-chlorophenyl)-1,3,4-oxadiazol-2-yl)cyclohexyl)acetamide], the IC50 with ATF4 (3 h) is < 0.01 µM. Further, the activity at 1 µM in test [1] (CHO, 2 h) was found to be 96.9%.

Turning to `O=C(COc1ccc(Cl)c(F)c1)N[C@H]1CC[C@@H](c2cnn(-c3ccc(Cl)cc3)c2)CC1` [Compound 36, cis-2-(4-chloro-3-fluorophenoxy)-N-(4-(1-(4-chlorophenyl)-1H-pyrazol-4-yl)cyclohexyl)acetamide], the IC50 in the test on ATF4 (setting [2]) fell in the range of 0.1 to 1 µM. Also, in test [1] (setting [3]), the activity at 1 µM amounted to 6.4%.
